Series [1] is described as follows: Dynamic light scattering: aggregate size and polydispersity index. To be noted: 150 mM NaH2PO4, 25°C. Format: physicochemical. How it is done: These concentrations were chosen to comprise two different aggregates of each FIL, above the 1st CAC and the 3rd CAC. […] Therefore, 20 μL was transferred into a quartz cell of 10 mm pathlength and measured at 25 °C.
Moreover, the polydispersity index (PdI) was obtained by DLS which determines the heterogeneity of the sample in the function of the size.

On the set-up of series [2]: method as in doi:10.5772/INTECHOPEN.96336, doi:10.1016/j.molliq.2022.119285, PMID 25580898. To be noted: cited from earlier work.
Series [3] has as its target T1, IFN-α 2b (Homo sapiens, UniProt P01563).
T1 construct: purchased Sigma-Aldrich SRP4595; host or cells: E. coli
In words: Intrinsic fluorescence spectroscopy of IFN-α 2b with FILs (λmax shift, Stern–Volmer quenching). It counts as binding. How it is done: The concentrations were chosen to cover the range where the different aggregates of the FILs are formed. Samples, equilibrated for 30 min at room temperature, and 400 μL of each solution were transferred to a quartz cuvette of 10 mm pathlength and excited at 280 nm, collecting the fluorescence intensity in a wavelength range of 300 to 450 nm. The width of the excitation and emission slit was set to 5 nm for both cases. The spectra of FIL solutions (blanks) were discounted to the spectra of FIL + protein samples to avoid any possible effect of FIL concentration increment in the fluorescence intensity.
A very well-known equation, the Stern–Volmer, was used to characterize the quenching occurring in this region. This equation characterizes the collisional quenching that can occur when the excited state of the fluorophore is disabled due to contact with another molecule (quencher), without chemical alteration. Therefore, the collisional quenching is described by:(11) F0/F=1+K[Q]=1+kqτ0[Q] where F0 and F are the fluorescence intensities of the fluorophore in the absence and presence of the quencher, respectively, K is the Stern–Volmer quenching constant, kq is the biomolecular quenching constant, τ0 is the unquenched lifetime, and [Q] is the quencher concentration. […] This value gives information on the sensitivity of the fluorophore to a quencher.

The conditions of series [4]: cited from earlier work.
Series [5] concerns the target T1, IFN-α 2b. In words: Microscale thermophoresis (MST) binding affinity of FILs with labelled IFN-α 2b. Conditions: for Kd: labelled IFN-α 2b 2.7 μM, 5 mM NaH2PO4 pH 7.4, 25 °C, ± = Kd confidence of the fitting. How it is done: Several dilution series of 16 samples of 20 μL were prepared in triplicate for each studied system. All the solutions were prepared in the buffer of the protein, 5 mM of NaH2PO4 (pH = 7.4), and PCR tubes. In the first tube (1 out 16) 20 μL of FIL stock solution was added at twofold the maximum concentration defined for each assay. In the remaining 15 tubes, 10 μL of buffer was added, followed by the series dilution of the FIL. […] The selected concentrations cover the range where the distinct CACs are formed in each FIL. The excitation power was determined by a pre-test and set to 20% whereas the MST power was set to medium (standard). The assays were executed in standard capillaries and triplicates. The results were processed using the MO.Affinity Analysis v2.3 software (NanoTemper Technologies, Munich, Germany).
In the process of labelling, commonly, one amine per protein is labelled, statistically distributing the position of the dye. […] As explained in the experimental section, in each run of MST, a maximum concentration is chosen and is consecutively diluted in 16 capillaries.
For orientation: In MST a laser heats a spot of the sample, and binding alters the fluorescence response.

Molecules are shown by their SMILES.

Consider 2 molecules from publication PMC9181987, “Disclosing the Potential of Fluorinated Ionic Liquids as Interferon-Alpha 2b Delivery Systems” (Nanomaterials, 2022).

Broadly, the Kd is a measure of binding affinity in units of concentration. A low value points to tighter binding.

T1 sequence (P01563 24-188): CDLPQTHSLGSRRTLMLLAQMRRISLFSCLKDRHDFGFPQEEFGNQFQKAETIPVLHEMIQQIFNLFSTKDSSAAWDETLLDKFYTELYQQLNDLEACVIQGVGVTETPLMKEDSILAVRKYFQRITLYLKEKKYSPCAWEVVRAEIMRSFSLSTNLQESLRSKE

In the case of `C[N+](C)(C)CCO.O=S(=O)([O-])C(F)(F)C(F)(F)C(F)(F)C(F)(F)F` [[N1112(OH)][C4F9SO3], (2-Hydroxyethyl)trimethylammonium perfluorobutanesulfonate], the figures for the “Polydispersity index (PdI)” value in series [1] (29.8 mM FIL) and in series [1] (248.0 mM FIL) were 0.784 and 0.543, respectively. In addition, in series [2], the miscibility in water entry is reported as “full miscibility in water”. For the same molecule, in series [3] (IFN-α 2b 20 μg/mL, region ~14 mM to ~110 mM FIL, 5 mM NaH2PO4 pH 7.4, excitation 280 nm), the “Stern–Volmer quenching constant K” value amounted to 0.00195 mM⁻¹. The “red shift of λmax” value in series [3] (concentration close to the 3rd CAC, IFN-α 2b 20 μg/mL) was 3 nm; in series [3] (concentrations above 384 mM, IFN-α 2b 20 μg/mL), “up to 8 nm”. Also, the “biomolecular quenching constant kq” value in series [3] (from K and τ0 of IFN-α 2b) was 6.61e+08 M⁻¹ s⁻¹. For the same molecule, in series [4], the toxicity entry is “negligible toxicity”. Moreover, the “binding to IFN-α 2b (MST)” value in series [5] (four runs, maximum concentrations 15, 35, 70, 375 mM) is “binding only occurs for the runs where concentrations were above the 2nd and 3rd CAC”.
With `O=S(=O)(O)C(F)(F)C(F)(F)C(F)(F)C(F)(F)F` [[N1112(OH)][C4F9SO3], (2-Hydroxyethyl)trimethylammonium perfluorobutanesulfonate], the Kd came out at 0.000597 mM in series [5] (assay 70 − 2.1 × 10^−3 mM FIL) and 54.7 ± 36.9 mM in series [5] (assay 375 − 1.1 × 10^−2 mM FIL).
